Experimental data: PubChem BioAssay (NCI)
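Test compounds were applied to cells in 96-well plates for 48 hours at 5 doses. GI50 is the concentration that inhibits growth by half. Definition used: TGI = concentration required for complete inhibition of growth.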

Key:
Test in all cases: growth of human tumour cells (NCI), 48 h; in the data active = GI50 below about 0.43 µM; inactive = the rest
HCT-15 colon = test system: HCT-15 colon
A498 renal = test system: A498 renal
OVCAR-8 ovarian = test system: OVCAR-8 ovarian
SF-268 CNS = test system: SF-268 CNS
SW-620 colon = test system: SW-620 colon
KM12 colon = test system: KM12 colon
HT29 colon = test system: HT29 colon
OVCAR-4 ovarian = test system: OVCAR-4 ovarian
HOP-92 NSCLC = test system: HOP-92 NSCLC
HS 578T breast = test system: HS 578T breast
OVCAR-5 ovarian = test system: OVCAR-5 ovarian
SK-MEL-5 melanoma = test system: SK-MEL-5 melanoma
HCC-2998 colon = test system: HCC-2998 colon
BT-549 breast = test system: BT-549 breast
CCRF-CEM leukemia = test system: CCRF-CEM leukemia
A549 NSCLC = test system: A549 NSCLC
SNB-75 CNS = test system: SNB-75 CNS
OVCAR-3 ovarian = test system: OVCAR-3 ovarian
NCI-H460 lung = test system: NCI-H460 lung
SR leukemia = test system: SR leukemia
NCI-H226 lung = test system: NCI-H226 lung
RXF 393 renal = test system: RXF 393 renal
SNB-19 CNS = test system: SNB-19 CNS
LOX IMVI melanoma = test system: LOX IMVI melanoma
MCF7 breast = test system: MCF7 breast
T-47D breast = test system: T-47D breast
PC-3 prostate = test system: PC-3 prostate
MALME-3M melanoma = test system: MALME-3M melanoma
UACC-257 melanoma = test system: UACC-257 melanoma
SK-MEL-2 melanoma = test system: SK-MEL-2 melanoma
MDA-MB-435 = test system: MDA-MB-435
RPMI-8226 leukemia = test system: RPMI-8226 leukemia
COLO 205 colon = test system: COLO 205 colon
ACHN renal = test system: ACHN renal
M14 melanoma = test system: M14 melanoma
TK-10 renal = test system: TK-10 renal
SK-MEL-28 melanoma = test system: SK-MEL-28 melanoma
NCI/ADR-RES ovarian = test system: NCI/ADR-RES ovarian
SN12C renal = test system: SN12C renal
U251 CNS = test system: U251 CNS
EKVX NSCLC = test system: EKVX NSCLC
UACC-62 melanoma = test system: UACC-62 melanoma
SK-OV-3 ovarian = test system: SK-OV-3 ovarian
HL-60(TB) leukemia = test system: HL-60(TB) leukemia
SF-295 CNS = test system: SF-295 CNS
UO-31 renal = test system: UO-31 renal
K-562 leukemia = test system: K-562 leukemia
MDA-MB-231 breast = test system: MDA-MB-231 breast
CAKI-1 renal = test system: CAKI-1 renal
SF-539 CNS = test system: SF-539 CNS
IGROV1 ovarian = test system: IGROV1 ovarian
786-0 renal = test system: 786-0 renal
MOLT-4 leukemia = test system: MOLT-4 leukemia
HCT-116 colon = test system: HCT-116 colon
DU-145 prostate = test system: DU-145 prostate
HOP-62 NSCLC = test system: HOP-62 NSCLC
NCI-H522 lung = test system: NCI-H522 lung
NCI-H23 lung = test system: NCI-H23 lung

NCC(=O)CCC(=O)O
inactive: GI50 (HCT-15 colon) > 100 µM | GI50 (A498 renal) > 100 µM | GI50 (OVCAR-8 ovarian) > 100 µM | GI50 (SF-268 CNS) > 100 µM | GI50 (SW-620 colon) > 100 µM | GI50 (KM12 colon) > 100 µM | GI50 (HT29 colon) > 100 µM | GI50 (OVCAR-4 ovarian) > 100 µM | GI50 (HOP-92 NSCLC) > 100 µM | GI50 (HS 578T breast) > 100 µM | GI50 (OVCAR-5 ovarian) > 100 µM | GI50 (SK-MEL-5 melanoma) > 100 µM | GI50 (HCC-2998 colon) > 100 µM | GI50 (BT-549 breast) > 100 µM | GI50 (CCRF-CEM leukemia) > 87.2 µM | GI50 (A549 NSCLC) > 100 µM | GI50 (SNB-75 CNS) > 100 µM | GI50 (OVCAR-3 ovarian) > 100 µM | GI50 (NCI-H460 lung) > 100 µM | GI50 (SR leukemia) > 100 µM | GI50 (NCI-H226 lung) > 100 µM | GI50 (RXF 393 renal) > 100 µM | GI50 (SNB-19 CNS) > 100 µM | GI50 (LOX IMVI melanoma) > 100 µM | GI50 (MCF7 breast) > 100 µM | GI50 (T-47D breast) > 100 µM | GI50 (PC-3 prostate) > 100 µM | GI50 (MALME-3M melanoma) > 100 µM | GI50 (UACC-257 melanoma) > 100 µM | GI50 (SK-MEL-2 melanoma) > 100 µM | GI50 (MDA-MB-435) > 100 µM | GI50 (RPMI-8226 leukemia) > 100 µM | GI50 (COLO 205 colon) > 100 µM | GI50 (ACHN renal) > 100 µM | GI50 (M14 melanoma) > 100 µM | GI50 (TK-10 renal) > 100 µM | GI50 (SK-MEL-28 melanoma) > 100 µM | GI50 (NCI/ADR-RES ovarian) > 100 µM | GI50 (SN12C renal) > 100 µM | GI50 (U251 CNS) > 100 µM | GI50 (EKVX NSCLC) > 100 µM | GI50 (UACC-62 melanoma) > 100 µM | GI50 (SK-OV-3 ovarian) > 100 µM | GI50 (HL-60(TB) leukemia) > 100 µM | GI50 (SF-295 CNS) > 100 µM | GI50 (UO-31 renal) > 100 µM | GI50 (K-562 leukemia) > 100 µM | GI50 (MDA-MB-231 breast) > 100 µM | GI50 (CAKI-1 renal) > 100 µM | GI50 (SF-539 CNS) > 100 µM | GI50 (IGROV1 ovarian) > 100 µM | GI50 (786-0 renal) > 100 µM | GI50 (MOLT-4 leukemia) > 100 µM | GI50 (HCT-116 colon) > 100 µM | GI50 (DU-145 prostate) > 100 µM | GI50 (HOP-62 NSCLC) > 100 µM | GI50 (NCI-H522 lung) > 100 µM | GI50 (NCI-H23 lung) > 100 µM
> 100 µM: TGI (HCT-15 colon) | TGI (A498 renal) | TGI (OVCAR-8 ovarian) | TGI (SF-268 CNS) | TGI (SW-620 colon) | TGI (KM12 colon) | TGI (HT29 colon) | TGI (OVCAR-4 ovarian) | TGI (HOP-92 NSCLC) | TGI (HS 578T breast) | TGI (OVCAR-5 ovarian) | TGI (SK-MEL-5 melanoma) | TGI (HCC-2998 colon) | TGI (BT-549 breast) | TGI (CCRF-CEM leukemia) | TGI (A549 NSCLC) | TGI (SNB-75 CNS) | TGI (OVCAR-3 ovarian) | TGI (NCI-H460 lung) | TGI (SR leukemia) | TGI (NCI-H226 lung) | TGI (RXF 393 renal) | TGI (SNB-19 CNS) | TGI (LOX IMVI melanoma) | TGI (MCF7 breast) | TGI (T-47D breast) | TGI (PC-3 prostate) | TGI (MALME-3M melanoma) | TGI (UACC-257 melanoma) | TGI (SK-MEL-2 melanoma) | TGI (MDA-MB-435) | TGI (RPMI-8226 leukemia) | TGI (COLO 205 colon) | TGI (ACHN renal) | TGI (M14 melanoma) | TGI (TK-10 renal) | TGI (SK-MEL-28 melanoma) | TGI (NCI/ADR-RES ovarian) | TGI (SN12C renal) | TGI (U251 CNS) | TGI (EKVX NSCLC) | TGI (UACC-62 melanoma) | TGI (SK-OV-3 ovarian) | TGI (HL-60(TB) leukemia) | TGI (SF-295 CNS) | TGI (UO-31 renal) | TGI (K-562 leukemia) | TGI (MDA-MB-231 breast) | TGI (CAKI-1 renal) | TGI (SF-539 CNS) | TGI (IGROV1 ovarian) | TGI (786-0 renal) | TGI (MOLT-4 leukemia) | TGI (HCT-116 colon) | TGI (DU-145 prostate) | TGI (HOP-62 NSCLC) | TGI (NCI-H522 lung) | TGI (NCI-H23 lung)

Cc1ccc(-n2c(-c3ccc(Cl)cc3)cs/c2=N\NC(=O)COc2n[nH]c(=O)c3ccccc23)cc1
65.9 µM: TGI (SNB-75 CNS)
inactive: GI50 (HCT-15 colon) > 100 µM | GI50 (A498 renal) > 100 µM | GI50 (OVCAR-8 ovarian) 16.6 µM | GI50 (SF-268 CNS) 32.9 µM | GI50 (SW-620 colon) > 100 µM | GI50 (KM12 colon) > 100 µM | GI50 (HT29 colon) > 100 µM | GI50 (OVCAR-4 ovarian) > 100 µM | GI50 (HOP-92 NSCLC) 34.6 µM | GI50 (HS 578T breast) 27.5 µM | GI50 (OVCAR-5 ovarian) > 100 µM | GI50 (SK-MEL-5 melanoma) > 100 µM | GI50 (BT-549 breast) > 100 µM | GI50 (CCRF-CEM leukemia) > 100 µM | GI50 (A549 NSCLC) > 100 µM | GI50 (SNB-75 CNS) 20.7 µM | GI50 (OVCAR-3 ovarian) > 100 µM | GI50 (NCI-H460 lung) > 100 µM | GI50 (SR leukemia) > 100 µM | GI50 (NCI-H226 lung) 39.6 µM | GI50 (RXF 393 renal) 30.8 µM | GI50 (SNB-19 CNS) 40 µM | GI50 (LOX IMVI melanoma) > 100 µM | GI50 (MCF7 breast) 70.7 µM | GI50 (T-47D breast) > 100 µM | GI50 (PC-3 prostate) > 100 µM | GI50 (MALME-3M melanoma) 31.9 µM | GI50 (UACC-257 melanoma) 80.2 µM | GI50 (SK-MEL-2 melanoma) > 100 µM | GI50 (MDA-MB-435) > 100 µM | GI50 (RPMI-8226 leukemia) > 100 µM | GI50 (COLO 205 colon) > 100 µM | GI50 (ACHN renal) > 100 µM | GI50 (M14 melanoma) > 100 µM | GI50 (TK-10 renal) 52.7 µM | GI50 (SK-MEL-28 melanoma) > 100 µM | GI50 (NCI/ADR-RES ovarian) > 100 µM | GI50 (SN12C renal) 78.1 µM | GI50 (U251 CNS) 37.5 µM | GI50 (EKVX NSCLC) 59.6 µM | GI50 (UACC-62 melanoma) 23.4 µM | GI50 (SK-OV-3 ovarian) 57.9 µM | GI50 (HL-60(TB) leukemia) > 100 µM | GI50 (SF-295 CNS) 19.7 µM | GI50 (UO-31 renal) > 100 µM | GI50 (K-562 leukemia) > 100 µM | GI50 (MDA-MB-231 breast) 68.4 µM | GI50 (CAKI-1 renal) 25.7 µM | GI50 (SF-539 CNS) 19.6 µM | GI50 (IGROV1 ovarian) > 100 µM | GI50 (786-0 renal) 51.4 µM | GI50 (MOLT-4 leukemia) > 100 µM | GI50 (DU-145 prostate) > 100 µM | GI50 (HOP-62 NSCLC) 51.8 µM | GI50 (NCI-H522 lung) > 100 µM | GI50 (NCI-H23 lung) 34.1 µM
71.8 µM: TGI (SF-539 CNS)
> 100 µM: TGI (HCT-15 colon) | TGI (A498 renal) | TGI (OVCAR-8 ovarian) | TGI (SF-268 CNS) | TGI (SW-620 colon) | TGI (KM12 colon) | TGI (HT29 colon) | TGI (OVCAR-4 ovarian) | TGI (HOP-92 NSCLC) | TGI (HS 578T breast) | TGI (OVCAR-5 ovarian) | TGI (SK-MEL-5 melanoma) | TGI (BT-549 breast) | TGI (CCRF-CEM leukemia) | TGI (A549 NSCLC) | TGI (OVCAR-3 ovarian) | TGI (NCI-H460 lung) | TGI (SR leukemia) | TGI (NCI-H226 lung) | TGI (RXF 393 renal) | TGI (SNB-19 CNS) | TGI (LOX IMVI melanoma) | TGI (MCF7 breast) | TGI (T-47D breast) | TGI (PC-3 prostate) | TGI (MALME-3M melanoma) | TGI (UACC-257 melanoma) | TGI (SK-MEL-2 melanoma) | TGI (MDA-MB-435) | TGI (RPMI-8226 leukemia) | TGI (COLO 205 colon) | TGI (ACHN renal) | TGI (M14 melanoma) | TGI (TK-10 renal) | TGI (SK-MEL-28 melanoma) | TGI (NCI/ADR-RES ovarian) | TGI (SN12C renal) | TGI (U251 CNS) | TGI (EKVX NSCLC) | TGI (UACC-62 melanoma) | TGI (SK-OV-3 ovarian) | TGI (HL-60(TB) leukemia) | TGI (SF-295 CNS) | TGI (UO-31 renal) | TGI (K-562 leukemia) | TGI (MDA-MB-231 breast) | TGI (IGROV1 ovarian) | TGI (786-0 renal) | TGI (MOLT-4 leukemia) | TGI (DU-145 prostate) | TGI (HOP-62 NSCLC) | TGI (NCI-H522 lung) | TGI (NCI-H23 lung)
72.7 µM: TGI (CAKI-1 renal)
